Test results: US20240041878A1, “APELIN RECEPTOR MODULATORS FOR TREATMENT OF A DISORDER OR DISEASE ASSOCIATED WITH BBB PERMEABILITY” (BioAge Labs, Inc., priority 2022, published 2024)

Assays:
[1] = tested on: NF-κB signaling pathway in astrocytes; experiment: RT Profiler PCR Array, mouse NF-κB Signaling Targets, in astrocytes; assay type: cell-based; conditions: RAC+BGE-105 [250 nM]
Method: To stimulate astrocytes into a reactive state found in aging and neurodegenerative diseases per previous publications (Liddelow et al., 2017; Barbar et al., 2020), a combination of the cytokines TNF-α and IL-1α, and complement factor C1q, were added at 30 ng/mL, 3 ng/mL, and 400 ng/mL, respectively, into astrocyte culture media to make ‘reactive astrocyte cocktail’ (RAC) media. […] Bachem, Cat. #4029110), BAY-11-7082 (50 μM; Abcam, Cat. #ab141228) or equal volume of vehicle (0.01% DMSO in PBS) (hereafter referred to as ‘RAC treatment’). […] Total RNA purity and concentration was assessed using NanoDrop (ThermoFisher). 500 ng of RNA was used for cDNA synthesis using High-Capacity cDNA Reverse Transcription Kit (Fisher Scientific, Cat. #43-749-66) and total volume of cDNA was diluted to a final concentration of 2 ng/μ1. Gene expression was assessed using a RT Profiler PCR Array (Qiagen, Cat. #330231) specific to mouse NF-κB Signaling Targets according to manufacturer's protocol.

SOD1^G93A mice = experiment: ICV administration in SOD1^G93A mouse model of ALS; assay type: in vivo; conditions: ICV via Alzet minipumps, 1 month
Method: The study accesses the effects of BGE-105 in a mouse model of ALS. The study establishes pharmacokinetic/pharmacodynamic features of intracerebroventricular (ICV) administration of BGE-105 in wildtype C57BL/6J mice. Multiple doses across multiple timepoints are tested to determine drug characteristics within the central nervous system (CNS). BGE-105 is administered to SOD1^G93A mice using Alzet minipumps connected to ICV cannulas.
Astrocyte reactivity, driven by IL-la/TNFα/C1q-mediated neurotoxicity, contributes to spinal cord motor neuron death and motor dysfunction in mouse models of ALS. […] This study first validates intraventricular administration of BGE-105 into wildtype mice to establish CNS-specific drug properties and guide optimal dose selection. Next, the efficacy of CNS delivery of BGE-105 to minimize motor neuron death, improve motor function, and extend lifespan in the SOD1^G93A mouse model of ALS is tested. For experiments in vivo, BGE-105 are administered to SOD1^G93A mice using Alzet minipumps. Alzet minipumps are implanted at 4 months of age, followed by 1 month of continuous administration of BGE-105.
Analyses of motoric, behavioral, and survival endpoints are measured. Brain, spinal cord, and skeletal muscle are dissected post mortem for histochemical and transcriptomic analyses to determine target engagement and mechanisms of action.
Alzet minipumps connected to intraventricular cannulas are utilized for continuous CNS delivery of BGE-105, akin to previous studies on APJ agonism in the CNS (Zhu et al., 2020. Apelin-36 mediates neuroprotective effects by regulating oxidative stress, autophagy and apoptosis in MPTP-induced Parkinson's disease model mice, Brain Research, Volume 1726, 2020, 146493, ISSN 0006-8993). 4-month-old SOD1^G93A mice (C57BL/6J background; strain #004435, Jackson Laboratory) of both sexes (n=12/group; 6 male, 6 female) are randomized into vehicle or two separate treatment groups before undergoing baseline motor behavior assessments including the open field, grid hang, beam walk, and accelerating rotarod. […]

[2] = tested on: human patient, iPSC-derived neurons; experiment: Neurons from patient derived induced pluripotent stem cells (iPSCs); assay type: cell-based; conditions: compared to cells not treated with BGE-105
From the text: This study assesses the effect of BGE-105 (or media from other brain cells exposed to BGE-105, such as microglia and astrocytes) in human patient, iPSC-derived neurons improves a variety of functions associated with beneficial neuronal outcomes, including those listed below • i. proliferation and survival • ii. Autophagy • iii. synaptic plasticity • iv. ROS production

apelin receptor = molecular target: T1, apelin receptor (Homo sapiens, UniProt P35414); conditions: Ason et al., JCI Insight 2020; cited from earlier work
T1 sequence (P35414 1-380): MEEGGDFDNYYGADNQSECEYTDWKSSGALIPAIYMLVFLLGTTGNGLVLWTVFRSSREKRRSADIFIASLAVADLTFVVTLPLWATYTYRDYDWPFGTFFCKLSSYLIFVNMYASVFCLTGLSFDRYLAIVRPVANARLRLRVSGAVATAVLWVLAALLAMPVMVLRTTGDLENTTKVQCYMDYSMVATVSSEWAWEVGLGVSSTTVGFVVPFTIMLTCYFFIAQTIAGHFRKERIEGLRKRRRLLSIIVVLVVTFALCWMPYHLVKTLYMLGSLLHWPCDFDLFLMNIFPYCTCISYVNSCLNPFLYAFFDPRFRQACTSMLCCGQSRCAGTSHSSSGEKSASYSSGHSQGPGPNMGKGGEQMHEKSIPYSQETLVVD

With `COc1cccc(OC)c1-n1c(NS(=O)(=O)[C@@H](C)[C@H](C)c2ncc(C)cn2)nnc1-c1cncc(C)c1` [BGE-105, (2S,3R)—N-(4-(2,6-dimethoxyphenyl)-5-(5-methyl-3-pyridinyl)-4H-1,2,4-triazol-3-yl)-3-(5-methyl-2-pyrimidinyl)-2-butanesulfonamide] the “decrease of Cxcl3 expression” value [1] was 55%, the “increase of Csf3 expression” value [1] was 16% and the “increase of Il2 expression” value [1] was 184%. For the same compound, the lifespan (SOD1^G93A mice) was “extends lifespan”, the motor function (SOD1^G93A mice) was “improves motor function” and the motor neuron death (SOD1^G93A mice) was “minimizes motor neuron death”. The “survival, differentiation and cellular functioning of stem-cell-derived neurons” value [2] was “improves overall survival, differentiation, and cellular functioning” and the “activation of the apelin receptor” value (apelin receptor) was “known to activate”.
